From ChEMBL document CHEMBL1201862, “PubChem BioAssay data set” (2004)
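Test compounds were applied to cells in 96-well plates for 48 hours at 5 doses. The concentration for 50% growth inhibition is given as GI50.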 Calls of active or inactive are those of the source. Rule as the data show it: active = GI50 up to about 1.1 µM and inactive = higher.

Assays:
Assay in all cases: growth of human tumour cells (NCI), 48 h
PC-3 = system: PC-3
SK-OV-3 = system: SK-OV-3
K562 = system: K562
A549 = system: A549
SN12C = system: SN12C
NCI-H23 = system: NCI-H23
IGROV-1 = system: IGROV-1
RXF 393 = system: RXF 393
SNB-19 = system: SNB-19
NCI/ADR-RES = system: NCI/ADR-RES
OVCAR-8 = system: OVCAR-8
HL-60 = system: HL-60
OVCAR-3 = system: OVCAR-3
SF-268 = system: SF-268
SK-MEL-2 = system: SK-MEL-2
EKVX = system: EKVX
UO-31 = system: UO-31
HOP-92 = system: HOP-92

SMILES | GI50 (PC-3) | GI50 (SK-OV-3) | GI50 (K562) | GI50 (A549) | GI50 (SN12C) | GI50 (NCI-H23) | GI50 (IGROV-1) | GI50 (RXF 393) | GI50 (SNB-19) | GI50 (NCI/ADR-RES) | GI50 (OVCAR-8) | GI50 (HL-60) | GI50 (OVCAR-3) | GI50 (SF-268) | GI50 (SK-MEL-2) | GI50 (EKVX) | GI50 (UO-31) | GI50 (HOP-92)
CCOC(=O)/C(C(=O)Nc1cccc(Cl)c1)=C(/N)N1CCOCC1 | > 100 µM (inactive) | > 100 µM (inactive) | > 100 µM (inactive) | > 100 µM (inactive) | > 100 µM (inactive) | > 100 µM (inactive) | > 100 µM (inactive) | > 100 µM (inactive) | > 100 µM (inactive) | > 100 µM (inactive) | > 100 µM (inactive) | > 100 µM (inactive) | > 100 µM (inactive) | > 100 µM (inactive) | > 100 µM (inactive) | > 100 µM (inactive) |  | 
CC(=O)OC1CCC2(C)C(CCC3C2CC(=O)C2(C)C3CC(N3CC3)C2C(C)=O)C1 (stereo not given) | 14.1 µM (inactive) |  | 15.2 µM (inactive) | 27.4 µM (inactive) | 21.9 µM (inactive) | 16.7 µM (inactive) | 13.6 µM (inactive) | 16.5 µM (inactive) | 20.9 µM (inactive) | 24.6 µM (inactive) | 14 µM (inactive) |  | 26.2 µM (inactive) | 11.6 µM (inactive) | 17.5 µM (inactive) | 18.4 µM (inactive) | 18 µM (inactive) | 18.4 µM (inactive)
COC(=O)[C@H]1[C@@H](C(C)C)O[C@@H](C(C)C)O[C@H]1C(F)(F)F | > 100 µM (inactive) | > 100 µM (inactive) | > 100 µM (inactive) | > 100 µM (inactive) | > 100 µM (inactive) | > 100 µM (inactive) | 37.9 µM (inactive) | > 100 µM (inactive) | > 100 µM (inactive) | > 100 µM (inactive) | > 100 µM (inactive) | > 100 µM (inactive) | > 100 µM (inactive) | > 100 µM (inactive) |  | > 100 µM (inactive) | > 100 µM (inactive) | 44.6 µM (inactive)
O=C(N/C(=C\NC1=NCCS1)C(=O)N1CSC[C@@H]1C(=O)O)c1ccccc1 | > 100 µM (inactive) | > 100 µM (inactive) | > 100 µM (inactive) | > 100 µM (inactive) | > 100 µM (inactive) | > 100 µM (inactive) |  | > 100 µM (inactive) | > 100 µM (inactive) | > 100 µM (inactive) | > 100 µM (inactive) | > 100 µM (inactive) | > 100 µM (inactive) | > 100 µM (inactive) |  | > 100 µM (inactive) | > 100 µM (inactive) | > 100 µM (inactive)
O=C1C=C(NCC(c2ccccc2)c2ccccc2)C(=O)c2ncccc21 | 1.75 µM (inactive) | 7.33 µM (inactive) | 1.38 µM (inactive) | 0.668 µM (active) | 2.1 µM (inactive) | 1.54 µM (inactive) | 1.38 µM (inactive) |  | 2.58 µM (inactive) | 2.49 µM (inactive) | 2.39 µM (inactive) | 1.15 µM (inactive) | 0.991 µM (active) | 2.53 µM (inactive) | 2.28 µM (inactive) | 2.07 µM (inactive) | 1.11 µM (active) | 2.26 µM (inactive)
CC(=O)N1c2ccccc2C2=NN(C)C(=N)SC21 (stereo not given) | > 100 µM (inactive) |  | > 100 µM (inactive) | > 100 µM (inactive) | > 100 µM (inactive) | > 100 µM (inactive) |  |  | > 100 µM (inactive) | > 100 µM (inactive) | > 100 µM (inactive) | 89.5 µM (inactive) | 13.8 µM (inactive) | > 100 µM (inactive) | > 100 µM (inactive) | > 100 µM (inactive) | 28 µM (inactive) | 
C=C(C)CNC(=S)N(N)c1ccc2ccccc2c1 | 61.1 µM (inactive) | > 100 µM (inactive) | 40.4 µM (inactive) | > 100 µM (inactive) | > 100 µM (inactive) | > 100 µM (inactive) | 11.4 µM (inactive) | > 100 µM (inactive) | > 100 µM (inactive) | 78 µM (inactive) | > 100 µM (inactive) | 57.3 µM (inactive) | 88.5 µM (inactive) | 78 µM (inactive) |  | 24.7 µM (inactive) | 61.1 µM (inactive) | > 100 µM (inactive)
CC(C)Sc1nncc(/C(N)=N/O)n1 | > 100 µM (inactive) | > 100 µM (inactive) | > 100 µM (inactive) | > 100 µM (inactive) | > 100 µM (inactive) | > 100 µM (inactive) | > 100 µM (inactive) | > 100 µM (inactive) | > 100 µM (inactive) | > 100 µM (inactive) | > 100 µM (inactive) |  | > 100 µM (inactive) | > 100 µM (inactive) |  | > 100 µM (inactive) | > 100 µM (inactive) | 92 µM (inactive)
CCCCCCCCCCCCCCCCCCOCC(O)COP(=O)(O)OCC1OC(n2ccc(N)nc2=O)C(O)C1O (stereo not given) | 6.01 µM (inactive) | 66.8 µM (inactive) | 28.2 µM (inactive) | 3.85 µM (inactive) | 36.6 µM (inactive) | 26.1 µM (inactive) | 9.62 µM (inactive) | 12.9 µM (inactive) | 11.6 µM (inactive) | 19.1 µM (inactive) | 6.31 µM (inactive) | 9.84 µM (inactive) | 43.5 µM (inactive) | 16.9 µM (inactive) |  | 61.8 µM (inactive) |  | 19.9 µM (inactive)
CC(=O)Nc1ccc(NNc2cc(=O)n(C)c(=O)[nH]2)cc1 | 4 µM (inactive) |  | 33.3 µM (inactive) | 19 µM (inactive) | 10.1 µM (inactive) | 14.7 µM (inactive) | 14 µM (inactive) |  | 17.7 µM (inactive) | 16.7 µM (inactive) | 15.9 µM (inactive) | 2.95 µM (inactive) | 2.68 µM (inactive) |  |  | 17 µM (inactive) | 17.2 µM (inactive) | 2 µM (inactive)
O=C(CBr)N1CCC2(CC1)SSC1(CCN(C(=O)CBr)CC1)S2 | 1.84 µM (inactive) | 1.41 µM (inactive) | 0.647 µM (active) | 1.98 µM (inactive) | 1.93 µM (inactive) | 1.6 µM (inactive) |  |  | 1.58 µM (inactive) | 1.97 µM (inactive) | 1.93 µM (inactive) | 1.59 µM (inactive) |  |  |  |  | 0.593 µM (active) | 2.1 µM (inactive)
CCN(CC)c1ccc2cc(-c3csc(C)n3)c(=O)oc2c1 | 43.5 µM (inactive) | > 100 µM (inactive) | > 100 µM (inactive) | > 100 µM (inactive) | > 100 µM (inactive) |  | 45.3 µM (inactive) | 37.3 µM (inactive) | 59.7 µM (inactive) |  |  | 95.3 µM (inactive) |  | 81.3 µM (inactive) | > 100 µM (inactive) | > 100 µM (inactive) | > 100 µM (inactive) | 27.4 µM (inactive)
O=C(O)c1cc(-c2ccc3c(O)ccc(O)c3c2)ccc1O | 12.9 µM (inactive) | > 10 µM (inactive) | 5.14 µM (inactive) | 33.5 µM (inactive) | 15.7 µM (inactive) | 25.8 µM (inactive) | 16.7 µM (inactive) | 12.9 µM (inactive) | 40.9 µM (inactive) | 28.1 µM (inactive) | 23.7 µM (inactive) | > 100 µM (inactive) | 20.9 µM (inactive) | 29.1 µM (inactive) | 17.2 µM (inactive) | 18.2 µM (inactive) | 17.4 µM (inactive) | 
COc1cc(C=O)cc(/C=N/n2c3ccccc3c3ccccc32)c1O | 5.41 µM (inactive) | 6.76 µM (inactive) | 12 µM (inactive) | > 100 µM (inactive) | 5.46 µM (inactive) | 39.6 µM (inactive) |  | 25 µM (inactive) | 21.3 µM (inactive) |  | 8.09 µM (inactive) | 5.81 µM (inactive) | 45.2 µM (inactive) | 4.34 µM (inactive) |  | 43.1 µM (inactive) | 8.18 µM (inactive) | 2.91 µM (inactive)
[N-]=[N+]=NC1OC(=O)C(Cl)=C1N=P(c1ccccc1)(c1ccccc1)c1ccccc1 (stereo not given) | 2.95 µM (inactive) | > 10 µM (inactive) | 3.59 µM (inactive) | > 10 µM (inactive) | > 10 µM (inactive) |  | > 10 µM (inactive) | > 10 µM (inactive) | > 10 µM (inactive) | 5.51 µM (inactive) | > 10 µM (inactive) | 3.77 µM (inactive) | 5.9 µM (inactive) | > 10 µM (inactive) | > 10 µM (inactive) | > 10 µM (inactive) | > 10 µM (inactive) | 
Cc1cccnc1N/C=C1\C(=O)NC(=O)N(C)C1=O | > 100 µM (inactive) | > 100 µM (inactive) |  | > 100 µM (inactive) | > 100 µM (inactive) | 49.7 µM (inactive) | 64.1 µM (inactive) |  | > 100 µM (inactive) |  | > 100 µM (inactive) | > 100 µM (inactive) | > 100 µM (inactive) | > 100 µM (inactive) | > 100 µM (inactive) | 44 µM (inactive) | > 100 µM (inactive) | 65.6 µM (inactive)
Cc1nn(C(=O)c2ccccc2O)c2c1C(c1ccc3ccccc3c1O)SC(=N)N2 (stereo not given) | 3.66 µM (inactive) | 6.3 µM (inactive) | 3.6 µM (inactive) | 4.91 µM (inactive) | 6.58 µM (inactive) | 4.97 µM (inactive) | 3.61 µM (inactive) | 6.56 µM (inactive) | 8.61 µM (inactive) |  | 5.11 µM (inactive) |  | 2.69 µM (inactive) | 4.89 µM (inactive) | 4.39 µM (inactive) | 9.79 µM (inactive) | 4.2 µM (inactive) | 0.378 µM (active)
C=C1CC23CCC4C(C)(C(=O)O)CCCC4(C)C2CCC1C3 (stereo not given) | 37.7 µM (inactive) | 44.5 µM (inactive) | 46.3 µM (inactive) | 35.5 µM (inactive) | 38 µM (inactive) | 41.9 µM (inactive) | 24.4 µM (inactive) | 33.5 µM (inactive) | 53.1 µM (inactive) |  | 41.7 µM (inactive) |  | 30.4 µM (inactive) | 63.1 µM (inactive) | 42.3 µM (inactive) | 20.6 µM (inactive) | 28.8 µM (inactive) | 32.8 µM (inactive)
